The source of these data is paper PMC8414367, “(E)-7-Ethylidene-lithocholic Acid (7-ELCA) Is a Potent Dual Farnesoid X Receptor (FXR) Antagonist and GPBAR1 Agonist Inhibiting FXR-Induced Gene Expression in Hepatocytes and Stimulating Glucagon-like Peptide-1 Secretion From Enteroendocrine Cells” (Frontiers in Pharmacology, 2021).

Series [1] deals with AML12. Description: MTS viability assay. The settings on record: Mus musculus; AML12, 24 h, MTS; read-out: IC50 (µM), cell viability. Type of series: cell-based, murine. The method, then: (§1) The potential cytotoxicity of 7-alkylated chenodeoxycholic acid derivatives were assessed in different human (HepG2, HepaRG and Huh7) and murine (AML12) hepatocyte-derived cell lines. For this purpose, hepatic cells were treated at increasing concentration for 24h and analyzed by MTS viability assay.
(§2) Table S2. Cell viability was determined using the Cell Titer 96 Aqueous One Solution Cell Proliferation Assay (MTS assay) after treatment with test compounds for 24 h in four different hepatic cell lines. Vehicle (0.1% DMSO) and background (10% SDS; v/v, toxic control) controls of cell viability were set to be 100% and 0%, respectively.

A short description of series [2]: MTS viability assay. The settings on record: mouse, AML12 cells; AML12, 24 h, vehicle = 100%. Type of series: cell-based, murine. As to the method:
as §1, §2
In general terms: Tetrazolium dyes change colour on reduction, which living cells bring about.

For series [3], the target named is T1, FXR LBD (Homo sapiens, UniProt Q96RI1).
T1 construct: purchased ThermoFisher Scientific PV4833
T1 sequence (Q96RI1 262-486 limits assumed): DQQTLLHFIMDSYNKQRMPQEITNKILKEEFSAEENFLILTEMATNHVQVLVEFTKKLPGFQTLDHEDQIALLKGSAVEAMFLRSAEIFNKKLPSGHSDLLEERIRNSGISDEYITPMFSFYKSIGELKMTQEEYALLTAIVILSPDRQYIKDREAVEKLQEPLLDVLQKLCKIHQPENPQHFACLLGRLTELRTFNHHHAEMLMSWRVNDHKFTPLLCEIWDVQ
Description: LanthaScreen TR-FRET FXR Coactivator Assay, antagonistic mode (SRC-2 peptide recruitment). Type of series: biochemical. The method, then: The LanthaScreen® TR-FRET FXR Coactivator Assay (goat, PV4833, ThermoFisher Scientific) was performed to assess the affinity of tested compounds to FXR ligand-binding domain (LBD) in agonistic and antagonistic models. In the antagonistic assays, the FXR LBD was co-incubated with OCA or GW4064, together with tested ligands in increasing concentrations. The assay was performed according to the manufacturer’s protocols. […] Data have been obtained from three independent experiments performed in 4 replicates.

Series [4] deals with T2, human FXR (Homo sapiens, UniProt Q96RI1).
T2 sequence (Q96RI1 1-486): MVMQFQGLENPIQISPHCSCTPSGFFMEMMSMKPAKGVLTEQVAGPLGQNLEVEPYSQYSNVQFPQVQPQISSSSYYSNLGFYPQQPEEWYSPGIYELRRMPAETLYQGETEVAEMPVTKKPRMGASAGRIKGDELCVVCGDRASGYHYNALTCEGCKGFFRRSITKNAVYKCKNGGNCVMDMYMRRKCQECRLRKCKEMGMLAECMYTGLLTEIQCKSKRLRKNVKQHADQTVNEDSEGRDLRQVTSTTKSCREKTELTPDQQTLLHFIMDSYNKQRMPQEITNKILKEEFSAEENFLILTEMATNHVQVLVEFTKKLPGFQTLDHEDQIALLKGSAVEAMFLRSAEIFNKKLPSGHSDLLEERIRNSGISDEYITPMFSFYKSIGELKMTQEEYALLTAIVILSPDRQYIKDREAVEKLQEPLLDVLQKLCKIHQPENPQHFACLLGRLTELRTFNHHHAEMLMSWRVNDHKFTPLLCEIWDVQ
T2 sequence (P19793 1-462 partner): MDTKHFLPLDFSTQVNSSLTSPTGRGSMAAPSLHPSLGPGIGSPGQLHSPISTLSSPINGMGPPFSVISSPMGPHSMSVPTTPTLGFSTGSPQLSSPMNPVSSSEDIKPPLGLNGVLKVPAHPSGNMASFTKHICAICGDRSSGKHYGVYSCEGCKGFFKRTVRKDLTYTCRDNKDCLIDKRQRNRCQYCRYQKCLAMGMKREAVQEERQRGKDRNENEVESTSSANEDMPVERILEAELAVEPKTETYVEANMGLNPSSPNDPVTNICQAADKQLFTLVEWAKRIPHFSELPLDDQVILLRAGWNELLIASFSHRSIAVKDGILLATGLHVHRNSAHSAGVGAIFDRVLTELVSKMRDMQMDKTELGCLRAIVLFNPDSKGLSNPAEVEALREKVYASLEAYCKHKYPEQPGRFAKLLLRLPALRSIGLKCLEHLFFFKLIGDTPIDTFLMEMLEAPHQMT
Nature of the series: FXR luciferase reporter gene assay (FXRE-luc) in HepG2 cells, antagonistic mode. Type of series: cell-based. The note with it: for remaining activity at 10 µM: tested compound 10 µM. On the technique in general: Reporter assays use an easily measured gene product as a stand-in for the process of interest.

Series [5] relates to HepG2. Description: MTS viability assay. Type of series: cell-based, human. The settings on record: Homo sapiens; HepG2, 24 h, MTS; read-out: IC50 (µM), cell viability. As to the method: as §1, §2
For series [6], the system named is Huh7. Nature of the series: MTS viability assay. Type of series: cell-based, human. The settings on record: Homo sapiens, Huh-7; Huh7, 24 h, MTS; read-out: IC50 (µM), cell viability. The method, then:
as §1, §2

Series [7] relates to HepaRG. Nature of the series: MTS viability assay. Type of series: cell-based, human. The note with it: Homo sapiens, 24 h, MTS, read-out: IC50 (µM), cell viability. The method, then:
as §1, §2

A short description of series [8]: MTS viability assay. Type of series: cell-based, human. The note with it: human, vehicle = 100%. As to the method:
as §1, §2

For series [9], the target named is T2, human FXR. Description: FXR luciferase reporter gene assay (FXRE-luc) in HepG2 cells, agonistic mode. Type of series: cell-based. The note with it: 10 µM, 24 h, compound alone. As to the method:
FIGURE 3 Interaction of 7-alkylated derivatives of CDCA and 7-ELCA with human FXR in luciferase reporter gene assays. HepG2 cells were transiently co-transfected with the luciferase FXRE-luc construct and with expression pSG5-hFXR, pSG5-hRXRα, and pRL-TK vectors. Cells were treated with indicated concentrations for 24 h alone (A), an agonistic mode) or with 1 µM OCA as an FXR agonist (B–F), an antagonistic mode). […] IC50 values were calculated using concentration-response curves nonlinear fitting in GraphPad software.

For series [10], the target named is T3, GPBAR1 (Homo sapiens, UniProt Q8TDU6).
T3 construct: host or cells: HepG2
T3 sequence (Q8TDU6 1-330): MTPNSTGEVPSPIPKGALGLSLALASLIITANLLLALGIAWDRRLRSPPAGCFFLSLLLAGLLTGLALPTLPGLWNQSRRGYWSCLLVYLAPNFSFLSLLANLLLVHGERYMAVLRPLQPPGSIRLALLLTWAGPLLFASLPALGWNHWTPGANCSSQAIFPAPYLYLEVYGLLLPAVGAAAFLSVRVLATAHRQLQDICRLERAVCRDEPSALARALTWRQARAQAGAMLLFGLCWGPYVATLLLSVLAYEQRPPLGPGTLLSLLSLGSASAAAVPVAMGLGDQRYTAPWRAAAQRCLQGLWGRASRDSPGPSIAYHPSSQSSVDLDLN
Nature of the series: GPBAR1 CRE-luc luciferase reporter assay in HepG2 cells. Type of series: cell-based. The settings on record: 10 µM, 5 h, LCA 10 µM set as 100%. As to the method:
(C) Effects of LCA and 7-ELCA (both at 10 µM) on intracellular generation of cAMP in differentiated NCI-H716 cells after 30 min treatment. The increase in cAMP level (ΔcAMP) is presented as the difference between cAMP concertation in the treated sample after subtraction of the cAMP in the nontreated control sample. (D) Concentration-response curves for activation of GPBAR1 by LCA and 7-ELCA. EC50 values were calculated using nonlinear fitting of concentration-response curves. […] GLP-1 was normalized to protein concentration and GPBAR1 mRNA expression to GAPDH mRNA. Data are presented as a fold to control nontreated (NT) samples. Forskolin (FSK, 10 µM) was used as a GPBAR1-independent activator of cAMP production.

The subject of series [11] is FXR. On the set-up: method as in Sun et al., 2018. The settings on record: ref Sun et al., 2018; read-out: IC50, FXR antagonist; cited from earlier work.
For series [12], the system named is FXR. Details: method as in Li et al., 2013; Sayin et al., 2013. The note with it: co-activator assay, ref Li et al., 2013, Sayin et al., read-out: IC50, FXR antagonist; cited from earlier work.
Where [13] appears, read: HepG2, GW4064 1 µM, read-out: relative response (%) to the model FXR ligand activation (set to be 100%), GW4064 1 µM.
[14] abbreviates: HepG2, tested compound 40 µM, CDCA 20 µM, * = significant effect on cellular viability, read-out: relative response (%) to the model FXR ligand activation (set to be 100%), CDCA 20 µM.
[15] abbreviates: HepG2, tested compound 40 µM, GW4064 1 µM, * = significant effect on cellular viability, read-out: relative response (%) to the model FXR ligand activation (set to be 100%), GW4064 1 µM.

Molecules are shown by their SMILES. Like-named read-outs stand apart in the source and are kept apart here.

The IC50 is the midpoint of a concentration-inhibition curve. In general, viability refers to a read-out of living cells in per cent, often relative to untreated cells. A word on the inhibition: it is how much of the control response was suppressed. `CC(CCC(=O)O)C1CCC2C3C(CCC12C)C1(C)CCC(O)CC1CC3(O)C(C)C` (stereo not drawn) [2h, 3α,7α-Dihydroxy-7β-isopropyl-5β-cholan-24-oic acid]: the IC50 in [1] was 143 µM; in [3] (GW4064 1 µM, read-out: IC50, inhibition of GW4064-promoted interaction of SRC-2 and FXR), 35.2 ± 5.4 µM; in series [3] (OCA 1 µM, read-out: IC50, inhibition of OCA-induced recruitment of SRC-2 to FXR LBD), 25 ± 3.7 µM; in series [4] (HepG2, co-treatment with 1 µM OCA, 24 h, read-out: IC50, inhibition of OCA-induced FXR activation), 17.5 ± 1.7 µM; in [5], 103.3 ± 1 µM; in [6] it was over 100 µM. Further, the IC50 in series [7] came to 181 µM. The viability at 24 h, 10 µM stood at 94 ± 3.7% in series [2]; 93.4 ± 7.4% in [8] (HepG2 cells, HepG2, 24 h); 101 ± 6.9% in [8] (HepaRG cells); 97.6 ± 7.3% in series [8] (Huh7 cells, Huh7, 24 h). Besides, the inhibition at 100 µM in series [4] (HepG2, at 100 µM, with 1 µM OCA, read-out: inhibition of FXR activation) was about 90%. Moreover, in [4] (setting [13]), the remaining activity at 10 µM is 91.4 ± 5.3%. The remaining activity at 40 µM in series [4] (setting [14]) was 47.6 ± 0.3%; in series [4] (setting [15]), 63 ± 8.2%.

What is called melting point is the temperature, or range, at which the solid turns liquid. Take `C[C@H](CCC(=O)O)[C@H]1CCC2C3C(CC[C@@]21C)[C@@]1(C)CC[C@@H](O)C[C@H]1C[C@]3(O)C1CC1` (stereo partly drawn) [2i, 3α,7α-Dihydroxy-7β-cyclopropyl-5β-cholan-24-oic acid]: the melting point lay in the range of 78 to 82 °C. Besides, the “FXR activation, agonistic mode (in words)” value in series [9] is “significant inhibition of the FXR basal activation”. Also, the IC50 in series [1] is over 200 µM. Moreover, the viability at 24 h, 10 µM in series [2] was found to be 108 ± 3.2%. For the same compound, the “CRE-luc activation compared to LCA (in words)” value in series [10] was “comparable activities to LCA”. The remaining activity at 10 µM in series [4] (setting [13]) was 88.4 ± 4.2%. In addition, the remaining activity at 40 µM in [4] (setting [14]) stood at 60 ± 5.8%. The remaining activity at 40 µM in series [4] (setting [15]) amounted to 60.5 ± 5.2%. In [5], the half-maximal inhibitory concentration (IC50) amounted to 178.4 ± 1 µM. Moreover, in series [6], the IC50 is over 200 µM. The concentration for half-maximal inhibition (IC50) in [7] was over 200 µM. The viability at 24 h, 10 µM in series [8] (HepG2 cells, HepG2, 24 h) came to 90.9 ± 0.9%. Besides, the viability at 24 h, 10 µM in series [8] (HepaRG cells) amounted to 133 ± 12.2%. Also, the viability at 24 h, 10 µM in [8] (Huh7 cells, Huh7, 24 h) was found to be 97.9 ± 10.4%.

Regarding `C[C@H](CCC(=O)NCC(=O)O)[C@H]1CC[C@H]2[C@@H]3[C@@H](O)C[C@@H]4C[C@H](O)CC[C@]4(C)[C@H]3CC[C@]12C` [GUDCA], in [11], the IC50 was 77.2 µM.

Turning to `C[C@H](CCC(=O)NCCS(=O)(=O)O)[C@H]1CC[C@H]2[C@@H]3[C@@H](O)C[C@@H]4C[C@H](O)CC[C@]4(C)[C@H]3CC[C@]12C` [TUDCA, tauro-ursodeoxycholic acid], the IC50 in [11] was 75.1 µM.

As to `C[C@H](CCC(=O)NCCS(=O)(=O)O)[C@H]1CC[C@H]2[C@@H]3[C@@H](O)[C@@H](O)[C@@H]4C[C@H](O)CC[C@]4(C)[C@H]3CC[C@]12C` [Tβ-MCA, tauro-β-muricholic acid, reference compound], the IC50 in series [12] is 40 µM. The “inhibition of FXR activation” value in [4] (at 100 µM, with 1 µM OCA) turned out to be 15%. The “relative response (%) to the model FXR ligand activation (set to be 100%), CDCA 20 µM” value in series [4] (tested compound 40 µM, CDCA 20 µM, * = significant effect on cellular viability) is on record as 95.0±5.7%. Also, the “relative response (%) to the model FXR ligand activation (set to be 100%), GW4064 1 µM” value in [4] (tested compound 40 µM, GW4064 1 µM, * = significant effect on cellular viability) stood at 84.8±6.2%.

For the compound `C[C@H](CCC(=O)NCCS(=O)(=O)O)[C@H]1CC[C@H]2[C@@H]3[C@H](O)[C@@H](O)[C@@H]4C[C@H](O)CC[C@]4(C)[C@H]3CC[C@]12C` [tauro-α-MCA], the IC50 in [12] was 28 µM.
